Assay results as given in US12582652B2, “3-(ethoxydifluoromethyl)-6-(5-fluoro-6-(2,2,2-trifluoroethoxy)pyridin-3-yl)-[1,2,4]triazolo[4,3-a]pyrazine as an ion channel modulator” (Praxis Precision Medicines, Inc., priority 2022, dated 2026).
“Also recorded” adds a separate entry of the source.

Columns and labels:
healthy participants [1] = test: Phase 1 SAD/MAD/food effect trial: safety and tolerability; type: in vivo, human
Experimental: This was a 3-part Phase 1 clinical trial in healthy participants aged 18-55 years. Parts A and B were randomized, placebo-controlled and evaluated the effects of single (2.5-150 mg) and multiple (30-120 mg, 14 days QD (every day)) ascending oral doses of Compound 1, respectively. Part C was an open-label, randomized, crossover design evaluating the PK of a single oral dose (90 mg) in fasted and fed states. In Parts A (n=64) and B (n=32), participants were randomized 3:1 to Compound 1 or placebo (n=8/cohort). In Part C (n=16), participants were randomized 1:1 to one of two treatment sequences receiving a single dose of 90 mg Compound 1 in the fed (following a high-fat/high calorie meal) or fasted (≥10 hours after the last, and 4 hours before the next, meal) state.

hNaV1.5 [2] = target: T1, hNaV1.5 (Homo sapiens, UniProt Q14524); test: Persistent INa, patch clamp; type: cell-based
Experimental: (§1) Late (persistent) current Block: The inhibition of ATX-II activated late current was measured using a 200 ms voltage step to 0 mV. Protocols used low stimulation rates (about 0.1 Hz) and negative potentials (−120 mV) to keep channels in closed (resting) states. Pharmacology was measured as the mean INa during the final 20 ms of the step to 0 mV and leak subtraction was not used.

hNaV1.1 [3] = target: T2, hNaV1.1 (Homo sapiens, UniProt P35498); test: Persistent INa, patch clamp; type: cell-based
Experimental: as §1

hNaV1.2 [4] = target: T3, hNaV1.2 (Homo sapiens, UniProt Q99250); test: Persistent INa, patch clamp; type: cell-based
Experimental: as §1

[5] = system: hNaV1.1, hNaV1.2, hNaV1.5, rNaV1.2, dNaV1.2, mNaV1.6, rNaV1.6; test: Persistent INa of other NaV isoforms and orthologs, patch clamp; settings: read-out: persistent INa IC50 values across isoforms and orthologs
Source text: Persistent INa was activated from resting/closed channel conformations by maintaining a hyperpolarized holding potential (−120 mV).

hNaV1.6 = target: T4, hNaV1.6 (Homo sapiens, UniProt Q9UQD0); test: Steady-state inactivation and activation curves (V1/2 shift); type: cell-based; settings: for shift in V1/2 of activation curve: DMSO control −1.3 mV
T4 construct: stably expressing either human NaV1.6 (NP_055006); expressed in transfected cells

healthy participants [6] = test: 2-part Phase 1 trial (28 days; OXC combination): safety and tolerability; type: in vivo, human
Source text: (§3) This was a 2-part randomized, placebo-controlled Phase 1 trial in healthy participants aged 18-55 years. […] PD effects were examined on quantitative EEG (qEEG; resting and vigilant conditions) and stimulated EEG using auditory steady state response (ASSR). A total of 48 participants were enrolled; Part A, n=30; Part B, n=18.

hNaV1.1 [7] = target: T2, hNaV1.1; test: Peak INa voltage-dependent block, patch clamp; type: cell-based
Experimental: Voltage Dependent Block (VDB): VDB protocols used a depolarized voltage to keep channels in half-inactivated (resting) states. This allowed equilibrium binding and accurate determination of isoform selectivity (in the absence of biological features). For each cell, the midpoint of inactivation (V0.5) was determined using a 5,000 ms step to increase voltages (10 mV increments) to inactivate the channel immediately followed by a 2 ms step to 0 mV to maximally activate the channels. The holding potential (Vhold) was −120 mV between steps. The peak INa measured in response to the step to 0 mV was plotted and fitted with a Boltzmann equation to determine the V0.5. This value was then used for the VDB protocol. Pharmacology was measured during peak INa in response to step to 0 mV. No leak subtraction was used.

[8] = 2-part Phase 1 trial (28 days; OXC combination): pharmacokinetics
Source text: as §3

hNaV1.5 [9] = target: T1, hNaV1.5; test: Peak INa tonic block, patch clamp; type: cell-based
Experimental: (§2) Tonic Block (TB): Tonic Block (TB) protocols used low stimulation rates (about 0.1 Hz) and negative potentials (−120 mV) to keep channels in closed (resting) states. Pharmacology was measured during peak INa in response to step to 0 mV. No leak subtraction was used.

hNaV1.1 [10] = target: T2, hNaV1.1; test: Peak INa tonic block, patch clamp; type: cell-based
Experimental: as §2

hNaV1.2 [11] = target: T3, hNaV1.2; test: Peak INa tonic block, patch clamp; type: cell-based
Experimental: as §2

hNaV1.6-N1768D = target: T5, hNaV1.6-N1768D (Homo sapiens, UniProt Q9UQD0, N1768D); test: Persistent INa expressed by DEE mutant channel, patch clamp; type: cell-based; settings: hNaV1.6-N1768D DEE mutant
T5 construct: expressed in transfected cells

human NaV1.6 = target: T6, human NaV1.6 (Homo sapiens, UniProt Q9UQD0); test: Peak INa use-dependent block (UDB-10 Hz), PatchXpress patch clamp; type: cell-based
T6 construct: stably expressing either human NaV1.6 (NP_055006); expressed in transfected cells

[12] = system: heterozygous Kcnq2 K556E mice; test: Pentylenetetrazole (PTZ) induced seizure, Kcnq2 model; type: in vivo, mouse
Experimental: Pentylenetetrazole (PTZ), a GABA receptor antagonist, can be used to create a common, chemically-induced seizure model, a model of generalized seizure.
Mice were acclimated to experimental area for minimum 30 minutes before experimentation. All experiments were performed between 10:00 am and 12:30 pm. The treatment compounds and PTZ were always prepared fresh.
Mice were randomly assigned either to different doses of Compound 1 (10 mg/kg, 1 mg/kg, or 0.1 mg/kg) or a vehicle control containing 0.5% methylcellulose and 0.2% tween 80, and dosed via oral gavage (p.o). Compound 1 and the vehicle control were administered 60 minutes before the injection of PTZ.
PTZ (100 mg/kg) was dissolved in saline and administered subcutaneously (s.c) to the experimental mice. The latency to full tonic-clonic seizure with hind limb extension was measured. The animals were sacrificed either at the time of hind limb extension or 40 minutes after PTZ administration if no hind limb extension was recorded.
Data were analyzed using a Mantel-Cox log-rank test. Brain tissue and plasma were collected from some mice for each dose of Compound 1 at the PTZ endpoint for PK analysis.

T1 sequence (Q14524 1-2015 isoform Q14524-2): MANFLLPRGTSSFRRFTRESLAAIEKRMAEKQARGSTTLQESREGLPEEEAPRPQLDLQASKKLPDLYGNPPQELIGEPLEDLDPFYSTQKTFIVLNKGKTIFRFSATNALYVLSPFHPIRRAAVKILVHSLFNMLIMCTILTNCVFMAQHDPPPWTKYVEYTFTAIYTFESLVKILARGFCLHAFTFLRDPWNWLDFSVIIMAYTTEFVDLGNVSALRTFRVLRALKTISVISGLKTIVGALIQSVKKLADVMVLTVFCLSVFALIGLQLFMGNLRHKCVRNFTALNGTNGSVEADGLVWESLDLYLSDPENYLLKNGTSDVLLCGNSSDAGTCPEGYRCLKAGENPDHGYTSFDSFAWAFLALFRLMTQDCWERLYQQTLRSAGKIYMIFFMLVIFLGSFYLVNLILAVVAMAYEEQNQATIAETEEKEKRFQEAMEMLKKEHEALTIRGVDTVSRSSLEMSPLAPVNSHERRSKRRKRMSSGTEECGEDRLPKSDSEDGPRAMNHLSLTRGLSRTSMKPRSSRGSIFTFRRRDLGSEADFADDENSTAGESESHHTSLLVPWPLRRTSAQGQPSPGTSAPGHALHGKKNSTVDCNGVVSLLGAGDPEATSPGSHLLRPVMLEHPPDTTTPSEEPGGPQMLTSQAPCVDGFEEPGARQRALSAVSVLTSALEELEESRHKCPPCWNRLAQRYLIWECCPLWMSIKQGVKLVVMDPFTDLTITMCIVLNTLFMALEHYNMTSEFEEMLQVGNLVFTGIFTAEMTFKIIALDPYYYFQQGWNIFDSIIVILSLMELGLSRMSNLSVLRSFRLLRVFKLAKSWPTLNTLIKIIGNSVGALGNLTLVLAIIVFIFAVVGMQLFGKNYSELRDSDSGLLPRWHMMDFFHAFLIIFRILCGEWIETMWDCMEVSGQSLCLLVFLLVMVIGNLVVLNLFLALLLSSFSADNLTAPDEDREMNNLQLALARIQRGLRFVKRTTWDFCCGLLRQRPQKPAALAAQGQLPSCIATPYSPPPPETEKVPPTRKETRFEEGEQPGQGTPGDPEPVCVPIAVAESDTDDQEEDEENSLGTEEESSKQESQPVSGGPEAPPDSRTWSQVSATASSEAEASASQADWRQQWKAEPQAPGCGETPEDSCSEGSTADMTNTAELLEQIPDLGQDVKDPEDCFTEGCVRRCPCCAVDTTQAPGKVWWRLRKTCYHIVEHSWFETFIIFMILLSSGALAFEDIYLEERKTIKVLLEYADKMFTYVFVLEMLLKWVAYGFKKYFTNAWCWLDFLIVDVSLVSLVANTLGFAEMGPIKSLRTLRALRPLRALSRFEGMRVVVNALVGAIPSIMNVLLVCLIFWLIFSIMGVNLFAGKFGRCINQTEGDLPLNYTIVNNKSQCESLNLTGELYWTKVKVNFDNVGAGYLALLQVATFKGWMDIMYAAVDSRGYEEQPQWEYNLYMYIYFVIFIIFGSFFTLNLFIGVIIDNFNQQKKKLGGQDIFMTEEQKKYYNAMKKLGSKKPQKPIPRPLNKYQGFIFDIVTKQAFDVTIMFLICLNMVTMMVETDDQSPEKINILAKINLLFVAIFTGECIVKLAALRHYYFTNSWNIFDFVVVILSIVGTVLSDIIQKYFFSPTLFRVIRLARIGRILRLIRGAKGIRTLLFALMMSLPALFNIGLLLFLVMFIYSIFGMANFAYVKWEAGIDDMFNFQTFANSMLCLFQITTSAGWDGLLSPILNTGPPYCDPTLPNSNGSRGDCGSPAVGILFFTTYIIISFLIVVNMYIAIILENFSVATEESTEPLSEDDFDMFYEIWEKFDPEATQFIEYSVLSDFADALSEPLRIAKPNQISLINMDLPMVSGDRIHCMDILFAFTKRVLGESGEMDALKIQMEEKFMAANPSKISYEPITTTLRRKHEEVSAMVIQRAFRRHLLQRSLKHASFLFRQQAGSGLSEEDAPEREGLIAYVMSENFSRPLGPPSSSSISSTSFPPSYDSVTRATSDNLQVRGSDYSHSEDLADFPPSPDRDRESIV
T4 sequence (Q9UQD0 whole entry): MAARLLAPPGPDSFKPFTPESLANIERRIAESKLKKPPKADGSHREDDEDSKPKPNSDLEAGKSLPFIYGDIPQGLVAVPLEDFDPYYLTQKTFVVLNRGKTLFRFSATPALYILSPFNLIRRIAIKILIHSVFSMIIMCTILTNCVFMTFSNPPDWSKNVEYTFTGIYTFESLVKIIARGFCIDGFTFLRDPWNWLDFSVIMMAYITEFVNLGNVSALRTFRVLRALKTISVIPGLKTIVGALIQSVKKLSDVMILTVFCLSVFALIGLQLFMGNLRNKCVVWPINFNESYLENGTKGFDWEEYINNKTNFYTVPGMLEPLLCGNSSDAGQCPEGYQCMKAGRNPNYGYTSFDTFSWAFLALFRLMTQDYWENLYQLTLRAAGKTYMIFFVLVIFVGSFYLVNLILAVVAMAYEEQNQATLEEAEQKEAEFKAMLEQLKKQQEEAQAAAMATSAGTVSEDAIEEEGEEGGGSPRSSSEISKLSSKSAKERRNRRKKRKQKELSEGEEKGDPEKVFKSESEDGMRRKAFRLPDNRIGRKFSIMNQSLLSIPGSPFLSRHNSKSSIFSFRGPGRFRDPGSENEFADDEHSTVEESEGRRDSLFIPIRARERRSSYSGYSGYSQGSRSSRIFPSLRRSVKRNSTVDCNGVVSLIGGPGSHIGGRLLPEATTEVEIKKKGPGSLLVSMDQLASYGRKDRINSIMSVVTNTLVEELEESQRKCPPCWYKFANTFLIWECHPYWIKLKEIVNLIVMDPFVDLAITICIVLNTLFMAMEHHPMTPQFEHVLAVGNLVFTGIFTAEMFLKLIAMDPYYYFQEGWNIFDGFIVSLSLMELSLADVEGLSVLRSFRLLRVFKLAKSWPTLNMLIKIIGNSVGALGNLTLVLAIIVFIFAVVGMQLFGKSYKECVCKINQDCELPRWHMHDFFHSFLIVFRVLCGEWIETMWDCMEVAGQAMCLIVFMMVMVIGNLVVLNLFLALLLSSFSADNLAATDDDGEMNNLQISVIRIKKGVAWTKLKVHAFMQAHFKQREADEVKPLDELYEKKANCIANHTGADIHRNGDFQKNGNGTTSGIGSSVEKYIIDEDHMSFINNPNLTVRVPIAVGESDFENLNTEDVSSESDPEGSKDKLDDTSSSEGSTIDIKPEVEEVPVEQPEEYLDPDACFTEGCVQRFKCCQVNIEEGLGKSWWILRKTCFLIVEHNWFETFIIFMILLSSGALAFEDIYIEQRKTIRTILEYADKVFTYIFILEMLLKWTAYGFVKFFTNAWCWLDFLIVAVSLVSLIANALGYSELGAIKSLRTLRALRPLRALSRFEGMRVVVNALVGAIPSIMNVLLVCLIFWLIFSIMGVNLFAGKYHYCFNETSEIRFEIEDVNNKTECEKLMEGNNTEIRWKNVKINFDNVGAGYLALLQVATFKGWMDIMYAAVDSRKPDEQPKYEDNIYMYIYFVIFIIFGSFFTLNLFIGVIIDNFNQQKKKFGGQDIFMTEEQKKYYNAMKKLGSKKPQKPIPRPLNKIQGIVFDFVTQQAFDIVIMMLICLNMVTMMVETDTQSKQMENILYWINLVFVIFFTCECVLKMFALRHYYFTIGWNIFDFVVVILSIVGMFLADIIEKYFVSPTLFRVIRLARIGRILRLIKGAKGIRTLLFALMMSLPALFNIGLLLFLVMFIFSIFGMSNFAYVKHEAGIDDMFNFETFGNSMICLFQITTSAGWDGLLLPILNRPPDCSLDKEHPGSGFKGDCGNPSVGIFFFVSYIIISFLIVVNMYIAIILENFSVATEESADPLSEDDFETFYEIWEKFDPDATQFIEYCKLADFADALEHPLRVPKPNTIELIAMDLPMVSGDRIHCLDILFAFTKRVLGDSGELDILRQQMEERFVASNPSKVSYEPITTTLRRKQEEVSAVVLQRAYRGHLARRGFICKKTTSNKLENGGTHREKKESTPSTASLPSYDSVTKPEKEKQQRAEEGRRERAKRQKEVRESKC
T6 sequence (Q9UQD0 whole entry): as above
T5 sequence (Q9UQD0 whole entry N1768D): as the sequence (Q9UQD0 whole entry) above, with N1768D counted along it

CCOC(F)(F)c1nnc2cnc(-c3cnc(OCC(F)(F)F)c(F)c3)cn12 [Compound 1, 3-(ethoxydifluoromethyl)-6-(5-fluoro-6-(2,2,2-trifluoroethoxy)pyridin-3-yl)-[1,2,4]triazolo[4,3-a]pyrazine]
TEAEs that were mild (healthy participants [1]; healthy participants): > 92% | safety findings in vital signs, clinical laboratory results, physical exams, ECGs, C-SSRS (healthy participants [1]; healthy participants): no clinically significant safety findings | participants experiencing typical NaV blocker events (healthy participants [1]; more frequent at 120 mg and 150 mg): 34% | tolerability in healthy participants (healthy participants [1]; single doses up to 150 mg, up to 120 mg QD 14 days, 90 mg fed and fasted): well-tolerated; also recorded: well tolerated | IC50 (hNaV1.5 [2]): 0.172 µM | IC50 (hNaV1.1 [3]): 0.109 µM | IC50 (hNaV1.2 [4]): 0.172 µM | IC50 [5]: 0.109 to 0.18 µM | shift in V1/2 of activation curve (hNaV1.6; 0.3 μmol/L): −2.3 mV | shift in V1/2 of activation curve (hNaV1.6; 1 μmol/L): −2.7 mV | shift in V1/2 of steady-state inactivation curve (hNaV1.6; 1 μmol/L, DMSO control −2.6 mV): −11.7 mV | tolerability in healthy adults (healthy participants [6]; 90 mg, Part A): well tolerated | TEAEs mild in severity (healthy participants [6]; Part A): 71% | TEAEs moderate (healthy participants [6]; Part A): 29% | TEAEs severe (healthy participants [6]; Part A): 0% | number of TEAEs (healthy participants [6]; Part A): 35 | participants with TEAEs (healthy participants [6]; Part A (n=30 enrolled)): 13 | TEAEs mild or moderate (healthy participants [6]; Part A, 90 mg QD vs placebo): 100% | review of ALT/AST increases and rhabdomyolysis, causal association (healthy participants [6]; Part B): did not identify a causal association | TEAEs mild or moderate (healthy participants [6]; Part B, OXC + 120 mg Compound 1 vs OXC alone): 96% | TEAEs mild in severity (healthy participants [6]; Part B, both arms): 51% | TEAEs moderate (healthy participants [6]; Part B, both arms): 45% | TEAEs severe (healthy participants [6]; Part B, both arms): 4% | number of TEAEs (healthy participants [6]; Part B, both arms): 74 | participants with TEAEs (healthy participants [6]; Part B, both arms (n=18 enrolled)): 16 | safety findings in vital signs, physical exams, ECGs, C-SSRS (healthy participants [6]; Parts A and B): no clinically significant safety findings | preference for persistent INa over peak INa voltage-dependent block (hNaV1.1 [7]): 6.3 fold | approach to steady state ([8]; 90 mg QD for 28 days, Part A): approached steady state | increase in Compound 1 concentrations over human-equivalent dose required for efficacy in preclinical MES models ([8]; Part A, 90 mg QD): 13 fold | Compound 1 exposure with OXC coadministration ([8]; Part B, data not shown): did not appear to be altered | preference for persistent INa over peak INa tonic block (hNaV1.5 [9]): > 174 fold | peak INa tonic block inhibition (hNaV1.5 [9]; at 30 000 nmol/L): 12% | IC50 (hNaV1.1 [10]): 18.9 µM | preference for persistent INa over peak INa tonic block (hNaV1.1 [10]): 173 fold | IC50 (hNaV1.2 [11]): 13.7 µM | preference for persistent INa over peak INa tonic block (hNaV1.2 [11]): 80 fold | IC50 (hNaV1.6-N1768D): 0.075 µM | Ratio to Peak INa (TB) (UDB-10 Hz) (human NaV1.6; hNaV1.6): 31 | Ratio to Pers. INa (Peak INa UDB-10 Hz / persistent INa) (human NaV1.6; hNaV1.6): 2 | IC50 (human NaV1.6; hNaV1.6, 10 Hz): 0.271 µM | Peak INa UDB-10 Hz maximum inhibition (human NaV1.6; hNaV1.6, 10 Hz): 75% | use-dependent block at stimulation frequency of 10 Hz (human NaV1.6; hNaV1.6, 10 Hz): concentration dependent inhibition | use-dependent block at increased frequencies (human NaV1.6; hNaV1.6, 10 Hz, 30 Hz or 50 Hz): significantly greater compared with CBZ | efficacy in KCNQ2 K556E PTZ seizure model ([12]; 10 mg/kg p.o., 60 min before PTZ 100 mg/kg s.c.): highly efficacious | protection from hindlimb extension (FIG. 14C) ([12]; Kcnq2 DEE mouse model, PTZ): robust anticonvulsant activity
